This note sets out measurements from ChEMBL document CHEMBL4673219, “Novel 5,6-disubstituted pyrrolo[2,3-d]pyrimidine derivatives as broad spectrum antiproliferative agents: Synthesis, cell based assays, kinase profile and molecular docking study” (Bioorg Med Chem, 2018).

In data set [1] the test system is OVCAR-5. In words: Growth inhibition of human OVCAR-5 cells assessed as growth percentage at 100 uM incubated for 48 hrs by sulforhodamine B assay relative to control. Format: functional. The settings on record: read-out: Activity. A general note: In SRB staining, fixed cells bind dye roughly in proportion to their protein.
For data set [2], the system named is ACHN. Briefly: Growth inhibition of human ACHN cells incubated for 48 hrs by sulforhodamine B assay. It counts as functional.
Data set [3] relates to SK-MEL-2. In words: Growth inhibition of human SK-MEL-2 cells assessed as growth percentage at 0.1 uM incubated for 48 hrs by sulforhodamine B assay relative to control. It counts as functional. The settings on record: read-out: Activity.
The test system of data set [4] is SF-539. Briefly: Growth inhibition of human SF-539 cells assessed as growth percentage at 0.1 uM incubated for 48 hrs by sulforhodamine B assay relative to control. Format: functional. Conditions: read-out: Activity.
Data set [5] concerns SK-MEL-2. Briefly: Growth inhibition of human SK-MEL-2 cells assessed as growth percentage at 100 uM incubated for 48 hrs by sulforhodamine B assay relative to control. Conditions: read-out: Activity. Format: functional.
Data set [6] has as its system SK-MEL-28. Briefly: Growth inhibition of human SK-MEL-28 cells assessed as growth percentage at 0.01 uM incubated for 48 hrs by sulforhodamine B assay relative to control. It counts as functional. Conditions: read-out: Activity.
For data set [7], the system named is OVCAR-5. Briefly: Growth inhibition of human OVCAR-5 cells assessed as growth percentage at 0.1 uM incubated for 48 hrs by sulforhodamine B assay relative to control. The settings on record: read-out: Activity. Format: functional.
For data set [8], the system named is ACHN. In words: Growth inhibition of human ACHN cells assessed as growth percentage at 0.01 uM incubated for 48 hrs by sulforhodamine B assay relative to control. Conditions: read-out: Activity. It counts as functional.
In data set [9] the test system is SK-MEL-2. Briefly: Growth inhibition of human SK-MEL-2 cells assessed as growth percentage at 1 uM incubated for 48 hrs by sulforhodamine B assay relative to control. It counts as functional. The settings on record: read-out: Activity.
Data set [10] concerns ACHN. Briefly: Growth inhibition of human ACHN cells assessed as growth percentage at 100 uM incubated for 48 hrs by sulforhodamine B assay relative to control. Format: functional. Conditions: read-out: Activity.
For data set [11], the system named is ACHN. Briefly: Growth inhibition of human ACHN cells assessed as growth percentage at 0.1 uM incubated for 48 hrs by sulforhodamine B assay relative to control. Conditions: read-out: Activity. It counts as functional.
Data set [12] has as its system OVCAR-5. In words: Growth inhibition of human OVCAR-5 cells assessed as growth percentage at 10 uM incubated for 48 hrs by sulforhodamine B assay relative to control. Format: functional. The settings on record: read-out: Activity.
In data set [13] the test system is SF-539. Briefly: Growth inhibition of human SF-539 cells assessed as growth percentage at 100 uM incubated for 48 hrs by sulforhodamine B assay relative to control. Conditions: read-out: Activity. Format: functional.
The test system of data set [14] is SK-MEL-2. Briefly: Growth inhibition of human SK-MEL-2 cells assessed as growth percentage at 0.01 uM incubated for 48 hrs by sulforhodamine B assay relative to control. It counts as functional. The settings on record: read-out: Activity.
For data set [15], the system named is SK-MEL-28. In words: Growth inhibition of human SK-MEL-28 cells assessed as growth percentage at 1 uM incubated for 48 hrs by sulforhodamine B assay relative to control. It counts as functional. The settings on record: read-out: Activity.
In data set [16] the test system is OVCAR-5. Briefly: Growth inhibition of human OVCAR-5 cells assessed as growth percentage at 0.01 uM incubated for 48 hrs by sulforhodamine B assay relative to control. It counts as functional. Conditions: read-out: Activity.
The nature of data set [17]: Oral bioavailability in Sprague-Dawley rat at 10 mg/kg measured up to 24 hrs by LC-MS/MS analysis. Format: ADME, organism-based. Conditions: in vivo.
In data set [18] the test system is HL-60(TB). Briefly: Growth inhibition of human HL-60(TB) cells assessed as growth percentage at 1 uM incubated for 48 hrs by sulforhodamine B assay relative to control. Format: functional. Conditions: read-out: Activity.
Data set [19] is described as follows: Clearance in Sprague-Dawley rat at 10 mg/kg, iv measured up to 24 hrs by LC-MS/MS analysis. Format: ADME, organism-based. The settings on record: in vivo.
Data set [20] is described as follows: Terminal half life in Sprague-Dawley rat at 10 mg/kg, po measured up to 24 hrs by LC-MS/MS analysis. Format: ADME, organism-based. Conditions: in vivo, read-out: beta t1/2.
A short description of data set [21]: Terminal half life in Sprague-Dawley rat at 10 mg/kg, iv measured up to 24 hrs by LC-MS/MS analysis. Format: ADME, organism-based. The settings on record: in vivo, read-out: beta t1/2.
Data set [22] is described as follows: AUClast in Sprague-Dawley rat at 10 mg/kg, iv measured up to 24 hrs by LC-MS/MS analysis. It counts as ADME, organism-based. Further details: route intravenous, dose 10 mg/kg, time <=24. The settings on record: in vivo.
The test system of data set [23] is HL-60(TB). In words: Growth inhibition of human HL-60(TB) cells assessed as growth percentage at 0.01 uM incubated for 48 hrs by sulforhodamine B assay relative to control. Format: functional. The settings on record: read-out: Activity.
Data set [24] is described as follows: AUC (0 to infinity) in Sprague-Dawley rat at 10 mg/kg, iv measured up to 24 hrs by LC-MS/MS analysis. It counts as ADME, organism-based. More on the design: route intravenous, dose 10 mg/kg, time <=24. Conditions: in vivo.
Data set [25] relates to HL-60(TB). In words: Growth inhibition of human HL-60(TB) cells assessed as growth percentage at 100 uM incubated for 48 hrs by sulforhodamine B assay relative to control. The settings on record: read-out: Activity. Format: functional.
Data set [26] deals with A498. Briefly: Growth inhibition of human A498 cells incubated for 48 hrs by sulforhodamine B assay. It counts as functional.
Data set [27] addresses Macrophage colony-stimulating factor 1 receptor (Homo sapiens) (UniProt P07333). Briefly: Inhibition of human FMS at 10 uM using myelin basic protein as substrate incubated for 40 mins in presence of [gamma33P]ATP by scintillation counting method relative to control.
Data set [28] can be described thus: AUClast in Sprague-Dawley rat at 10 mg/kg, po measured up to 24 hrs by LC-MS/MS analysis. It counts as ADME, organism-based. Further details: route oral, dose 10 mg/kg, time <=24. Conditions: in vivo.
In data set [29] the target is Tyrosine-protein kinase Yes (Homo sapiens) (UniProt P07947). Briefly: Inhibition of human YES1 at 10 uM using myelin basic protein as substrate incubated for 40 mins in presence of [gamma33P]ATP by scintillation counting method relative to control.
Data set [30] is described as follows: Tmax in Sprague-Dawley rat at 10 mg/kg, po measured up to 24 hrs by LC-MS/MS analysis. Conditions: in vivo. It counts as ADME, organism-based.
Data set [31] relates to HL-60(TB). In words: Growth inhibition of human HL-60(TB) cells assessed as growth percentage at 0.1 uM incubated for 48 hrs by sulforhodamine B assay relative to control. The settings on record: read-out: Activity. Format: functional.
A short description of data set [32]: Cmax in Sprague-Dawley rat at 10 mg/kg, po measured up to 24 hrs by LC-MS/MS analysis. It counts as ADME, organism-based. Further details: route oral, dose 10 mg/kg, time <=24. The settings on record: in vivo.

Chain of Macrophage colony-stimulating factor 1 receptor (Homo sapiens) (P07333 whole entry): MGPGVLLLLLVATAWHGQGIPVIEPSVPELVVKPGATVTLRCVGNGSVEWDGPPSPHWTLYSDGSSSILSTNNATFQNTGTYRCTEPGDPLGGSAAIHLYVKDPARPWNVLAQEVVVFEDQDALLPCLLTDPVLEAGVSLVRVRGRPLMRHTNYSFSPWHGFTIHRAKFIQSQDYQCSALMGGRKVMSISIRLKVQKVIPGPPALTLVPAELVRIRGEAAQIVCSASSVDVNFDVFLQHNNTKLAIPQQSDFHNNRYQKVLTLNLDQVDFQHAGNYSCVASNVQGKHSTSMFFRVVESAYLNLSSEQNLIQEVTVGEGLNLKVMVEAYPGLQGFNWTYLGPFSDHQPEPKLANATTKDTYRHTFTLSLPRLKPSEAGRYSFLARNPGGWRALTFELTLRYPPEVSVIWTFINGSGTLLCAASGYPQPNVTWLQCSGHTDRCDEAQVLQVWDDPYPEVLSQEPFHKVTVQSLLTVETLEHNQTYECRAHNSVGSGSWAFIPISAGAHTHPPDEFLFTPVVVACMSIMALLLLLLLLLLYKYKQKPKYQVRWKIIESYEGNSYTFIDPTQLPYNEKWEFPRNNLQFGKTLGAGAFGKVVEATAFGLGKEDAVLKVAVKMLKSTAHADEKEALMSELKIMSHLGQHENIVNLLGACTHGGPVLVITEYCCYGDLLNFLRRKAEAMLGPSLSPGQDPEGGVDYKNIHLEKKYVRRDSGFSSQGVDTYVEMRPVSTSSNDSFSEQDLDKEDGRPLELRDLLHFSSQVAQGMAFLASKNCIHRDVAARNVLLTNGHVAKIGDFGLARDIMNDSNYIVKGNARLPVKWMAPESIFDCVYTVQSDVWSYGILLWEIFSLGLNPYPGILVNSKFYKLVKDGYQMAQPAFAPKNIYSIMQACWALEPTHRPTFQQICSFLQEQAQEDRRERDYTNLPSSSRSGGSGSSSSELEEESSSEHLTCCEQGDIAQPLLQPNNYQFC
Chain of Tyrosine-protein kinase Yes (Homo sapiens) (P07947 2-543 limits assumed): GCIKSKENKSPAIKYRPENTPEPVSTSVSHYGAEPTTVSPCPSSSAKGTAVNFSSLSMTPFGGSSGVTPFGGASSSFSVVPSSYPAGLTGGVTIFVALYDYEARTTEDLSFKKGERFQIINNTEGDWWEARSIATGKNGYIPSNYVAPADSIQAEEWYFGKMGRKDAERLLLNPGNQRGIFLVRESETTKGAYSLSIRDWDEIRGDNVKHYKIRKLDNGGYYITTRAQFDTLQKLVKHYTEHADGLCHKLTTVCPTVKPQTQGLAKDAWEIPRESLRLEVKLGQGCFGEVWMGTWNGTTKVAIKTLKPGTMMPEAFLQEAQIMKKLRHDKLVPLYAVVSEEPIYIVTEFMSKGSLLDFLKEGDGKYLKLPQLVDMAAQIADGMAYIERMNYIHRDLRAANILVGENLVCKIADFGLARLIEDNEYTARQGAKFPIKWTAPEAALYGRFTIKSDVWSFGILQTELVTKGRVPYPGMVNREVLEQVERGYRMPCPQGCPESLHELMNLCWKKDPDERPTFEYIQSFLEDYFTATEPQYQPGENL

A word on the GI50: it is the concentration at which growth is held to half of that of the control. A high value points to less potent growth inhibition. A word on the TGI: it is the concentration giving total growth inhibition. `Nc1nc2[nH]c(CN3CCN(c4cc(Cl)cc(Cl)c4)CC3)c(CN3CCN(c4cc(Cl)cc(Cl)c4)CC3)c2c(=O)[nH]1`: the growth at 100 µM in data set [1] was -35%; in data set [5], -48%; in [10], -26%; in data set [13] it was -55%. In data set [2], this compound displayed a GI50 of 1940 nM. The same compound came in with a TGI in data set [2] of 3900 nM. The growth at 0.1 µM in data set [3] is 115%; in data set [4], 94%; in [7], 94%; in data set [11], 98%. Besides, the growth at 0.01 µM in data set [6] worked out at 94%; in data set [8] it was 94%; in data set [14], 109%; in data set [16], 87%. Further, the figures for the growth at 1 µM in data set [9] and in [15] were 114% and 91%, respectively. Further, the growth at 10 µM in data set [12] came to 92.2%.
Usually bioavailability stands for dose-corrected exposure relative to a reference, in per cent. Lower therefore signals little systemic uptake. A word on the clearance: it is the rate of elimination divided by the concentration. A higher clearance goes with a high capacity for elimination. Usually AUC(0-t) stands for the area under the concentration-time curve up to a stated or last time point. A high value points to more exposure. What is called AUC(0-inf) is the area under the concentration-time curve extrapolated to infinity. Low readings indicate low exposure, high ones high exposure. As usually defined, the inhibition is the change of the read-out against control, counted positive when it falls. A word on the Tmax: it is the time at which the peak concentration occurs. A word on the Cmax: it is the peak of the concentration-time curve. `CCCCCCCC(=O)Nc1nc2[nH]c(CN3CCN(Cc4cccc(F)c4)CC3)c(CN3CCN(Cc4cccc(F)c4)CC3)c2c(=O)[nH]1` registered a bioavailability in data set [17] of 12.3%. Further, the growth at 1 µM in [18] came to 96%. In data set [19], this compound had a clearance of 342 mL/min/kg. The values for the half-life in [20] and in data set [21] were 1.66 h and 11.7 h, respectively. Besides, the AUC(0-t) at 24 h in data set [22] is 317 ng·h/mL; in data set [28], 56.7 ng·h/mL. Further, the growth at 0.01 µM in [23] came to 98%. Further, in data set [24], the AUC(0-inf) is 498 ng·h/mL. Moreover, the growth at 100 µM in data set [25] was -45%. The same compound returned a concentration for 50% growth inhibition (GI50) in [26] (A498) of 1250 nM. The same compound registered a TGI in [26] (A498) of 2530 nM. The CC50 in [26] (A498, 48 h, read-out: LC50 (the source's name)) stood at 5100 nM. For the same compound, the inhibition was 70.3% in data set [27] and 45.5% in data set [29]. In data set [30], the Tmax was 2.25 h. For the same compound, the growth at 0.1 µM in data set [31] amounted to 99%. The Cmax in data set [32] amounted to 10 ng/mL.
